Test results published in paper PMC9965165, “3D-Printing of Capsule Devices as Compartmentalization Tools for Supported Reagents in the Search of Antiproliferative Isatins” (Pharmaceuticals, 2023).
Where two headings read alike, the source gives them in different places.

Tests used:
[1] = test system: murine 3T3 Balb fibroblast cells; assay: CCK8 antiproliferation / cytotoxicity assay in 3T3 Balb fibroblasts; type: cell-based; details: CCK-8 assay, murine fibroblast 3T3 Balb cells
Experimental: (§1) The cytotoxic activity of these new synthesized isatin derivatives was evaluated by means of the CCK8 antiproliferation assay in vitro in two different cell lines: cancerous cervical HeLa and murine 3T3 Balb fibroblast cells. The latter cell line is typically used to analyze the potential toxicity of (nano)materials thanks to their sensitivity. […] It can be observed that fibroblast cells were more sensitive to the presence of isatin derivatives than the cancerous cells in general HeLa ones, probably related to the enhanced replication rate of the tumoral cells. Analysis of the experimental data shown in Figure 6 allowed the determination of IC50 values (see Table 3 and Table 4). […] [65, 66] Compounds 26 and 33 are, therefore, new promising hits for further development.
(§2) Cervical HeLa cancer cells and 3T3 mouse fibroblasts from Cell Biolabs (San Diego, CA, USA) were grown in standard culture conditions (5% CO2 at 37 °C) in DMEM supplemented with 10% (v/v) FBS, 2 mM L-glutamine, 1% (v/v) penicillin/streptomycin, 1 mM sodium pyruvate, and 0.1 mM MEM nonessential amino acids (NEAA).
(§3) Cytotoxicity of the synthesized isatin-based compounds was tested in vitro by means of the CCK-8 cytotoxicity assay. Cancerous cervical HeLa and 3T3 Balb fibroblasts cells were seeded into 96-well plates (1.0 × 10^4 cells/well) and grown for 24 h at an optical confluence of 80–90% under standard culture conditions in 100 μL growth medium. Bare cells were used as the negative control. After 24 h of incubation at 37 °C, 100 μL of NPs at 2.5 × 10^10 NP/mL in the corresponding cell culture medium were injected into the wells and incubated for 24 h and 48 h. After incubation, the culture medium was discarded, cells were washed with 10 mM PBS (pH 7.4) several times, and fresh culture medium (100 μL) containing 10 μL of CCK-8 reagent added to each well. After 2 h, the absorption at 450 nm of cell samples was measured with an UV-vis microplate absorbance reader (Bio-Rad model 689, USA). Cell viability (SR, survival rate) was calculated as follows: SR=Abssample/Absblank×100 where Abssample is the absorbance at 450 nm for cell samples, and Absblank is the absorbance corresponding to the sample controls without the particles.
(§4) For the determination of the half-maximal inhibitory concentration (IC50), a dose–response curve between the isatin derivatives’ concentrations and percent cell viability was plotted and fitted by means of a nonlinear least-squares fitting method (Microcal Origin 2021) to a four-parameter logistic equation: Y=min+((max−min)/1+10^((logIC50−X)×p)) where the original, %control or %survival data are represented by Y along their minimal (min) and maximal (max) values; the isatin derivative concentration is represented by X; IC50 is the concentration at 50% maximal value; and p is the slope factor.

[2] = test system: cancerous cervical HeLa cells; assay: CCK8 antiproliferation / cytotoxicity assay in HeLa cells; type: cell-based, human; details: for specificity for tumoral cells: HeLa versus 3T3 Balb fibroblasts; for IC50: CCK-8 assay, human cervical cancer HeLa cells
Experimental: as §1, §2, §3, §4

HBL-100 cell line = test system: HBL-100 cell line; parameters: method as in doi:10.1002/ajoc.202100684; details: HBL-100 line; cited from earlier work
HeLa cell line = test system: HeLa cell line; parameters: method as in doi:10.1002/ajoc.202100684; details: cited from earlier work
cervical tumors = details: cited from earlier work
[3] = Pt-based chemodrug, first line treatment of primary cervical tumors
[4] = drugs used for recurrent and metastatic cervical cancer

| melting point [°C] | Compound | IC50 ([1]; Mus musculus) [µM] | IC50 ([2]; Homo sapiens, HeLa) [µM] | also measured |
| --- | --- | --- | --- | --- |
| 218 to 220 | CCCCN(C(=O)C(F)(F)F)C1(C(=O)NC2CCCCC2)C(=O)Nc2ccc(I)cc21 (stereo not drawn) [Compound 18, 3-(N-butyl-2,2,2-trifluoroacetamido)-N-cyclohexyl-5-iodo-2-oxoindoline-3-carboxamide] | 8.5 ± 0.7 | 6.8 ± 0.5 | – |
| 198 to 200 | CCCCN(C(=O)C(F)(F)F)C1(C(=O)NC(C)(C)C)C(=O)Nc2ccc(Br)cc21 (stereo not drawn) [Compound 19, 5-bromo-N-(tert-butyl)-3-(N-butyl-2,2,2-trifluoroacetamido)-2-oxoindoline-3-carboxamide] | 7.8 ± 0.4 | 16.8 ± 1.7 | – |
| 178 to 180 | CCCCN(C(=O)C(F)(F)F)C1(C(=O)NC(C)(C)C)C(=O)Nc2ccc([N+](=O)[O-])cc21 (stereo not drawn) [Compound 20, N-(tert-butyl)-3-(N-butyl-2,2,2-trifluoroacetamido)-5-nitro-2-oxoindoline-3-carboxamide] | 25 ± 1.9 | 26 ± 1.9 | – |
| 200 to 202 | CCCCN(C(=O)C(F)(F)F)C1(C(=O)NC2CCCCC2)C(=O)Nc2ccc([N+](=O)[O-])cc21 (stereo not drawn) [Compound 21, 3-(N-butyl-2,2,2-trifluoroacetamido)-N-cyclohexyl-5-nitro-2-oxoindoline-3-carboxamide] | 17 ± 0.7 | 12.4 ± 0.7 | – |
| 190.2 to 190.4 | CCCCN(C(=O)CCl)C1(C(=O)NC2CCCCC2)C(=O)Nc2ccc(Br)cc21 (stereo not drawn) [Compound 22, 5-bromo-3-(N-butyl-2-chloroacetamido)-N-cyclohexyl-2-oxoindoline-3-carboxamide] | 0.12 ± 0.01 | 27 ± 0.8 | – |
| 175 to 177 | O=C1C(=O)N(Cc2cn(Cc3ccccc3)nn2)c2ccccc21 [Compound 25] | 100 ± 3.1 | 13.9 ± 4.5 | – |
| 158 to 159 | CCOC(=O)Cn1cc(CN2C(=O)C(=O)c3cc(I)ccc32)nn1 [Compound 27] | 7.3 ± 0.7 | 66.9 ± 8.9 | – |
| 131 to 132 | COC(=O)/C=C/c1ccc2c(c1)C(=O)C(=O)N2CCC(=O)OC [Compound 30, methyl (E)-3-(1-(3-methoxy-3-oxopropyl)-2,3-dioxoindolin-5-yl)acrylate] | 42.1 ± 2.7 | 9.3 ± 0.8 | specificity for tumoral cells [2]: not showing fully specific toxic activity for cancerous cells |
| 228 to 230 | COC(=O)/C=C/c1ccc2c(c1)C(=O)C(=O)N2Cc1ccc(I)cc1 [Compound 32, methyl (E)-3-(1-(4-iodobenzyl)-2,3-dioxoindolin-5-yl)acrylate] | 32.1 ± 3.4 | 10.8 ± 0.9 | – |
| 188 to 190 | COC(=O)/C=C/c1ccc(CN2C(=O)C(=O)c3cc(/C=C/C(=O)OC)ccc32)cc1 [Compound 33, methyl (E)-3-(4-((5-((E)-3-methoxy-3-oxoprop-1-en-1-yl)-2,3-dioxoindolin-1-yl)methyl)phenyl)acrylate] | 12.6 ± 0.9 | 1 ± 0.05 | specificity for tumoral cells [2]: high specificity for tumoral cells |

More lines, now with the values behind:

| Compound | melting point [°C] | IC50 ([1]; Mus musculus) [µM] | IC50 ([2]; Homo sapiens, HeLa) [µM] | also measured |
| --- | --- | --- | --- | --- |
| CCCCN(C(=O)CCl)C1(C(=O)NC(C)(C)C)C(=O)Nc2ccc(I)cc21 (stereo not drawn) [Compound 12, N-(tert-butyl)-3-(N-butyl-2-chloroacetamido)-5-iodo-2-oxoindoline-3-carboxamide] | 108.5 to 109.7 | 1.3 ± 0.2 | 8.3 ± 0.8 | specificity for tumoral cells [2]: not showing fully specific toxic activity for cancerous cells; antiproliferative activity (HBL-100 cell line): potent antiproliferative activity; antiproliferative activity (HeLa cell line): potent antiproliferative activity |
| CCCCN(C(=O)CCl)C1(C(=O)NC(C)(C)C)C(=O)Nc2ccc([N+](=O)[O-])cc21 (stereo not drawn) [Compound 13, N-(tert-butyl)-3-(N-butyl-2-chloroacetamido)-5-nitro-2-oxoindoline-3-carboxamide] | 179.5 to 179.8 | 4.8 ± 0.9 | 26.9 ± 1 | – |
| CCCCN(C(=O)CCl)C1(C(=O)NC(C)(C)C)C(=O)Nc2c(Cl)cc(Cl)cc21 (stereo not drawn) [Compound 14, N-(tert-butyl)-3-(N-butyl-2-chloroacetamido)-5,7-dichloro-2-oxoindoline-3-carboxamide] | 125 to 126 | 1.5 ± 0.3 | 14.1 ± 0.3 | – |
| CCCCN(C(=O)C(F)(F)F)C1(C(=O)NC2CCCCC2)C(=O)Nc2ccc(Br)cc21 (stereo not drawn) [Compound 15, 5-bromo-3-(N-butyl-2,2,2-trifluoroacetamido)-N-cyclohexyl-2-oxoindoline-3-carboxamide] | 209 to 210 | 28.3 ± 1.7 | 47.7 ± 1.2 | – |
| CCCCN(C(=O)CCl)C1(C(=O)NC(C)(C)C)C(=O)Nc2ccc(Br)cc21 (stereo not drawn) [Compound 16, 5-Bromo-N-(tert-butyl)-3-(N-butyl-2-chloroacetamido)-2-oxoindoline-3-carboxamide] | 180 to 182 | 1.5 ± 0.8 | 17.9 ± 1.3 | – |
| CCCCN(C(=O)C(F)(F)F)C1(C(=O)NC(C)(C)C)C(=O)Nc2ccc(I)cc21 (stereo not drawn) [Compound 17, N-(tert-butyl)-3-(N-butyl-2,2,2-trifluoroacetamido)-5-iodo-2-oxoindoline-3-carboxamide] | 204 to 205 | 7.2 ± 0.5 | 33 ± 1.4 | – |
| O=C1C(=O)N(Cc2cn(Cc3ccccc3)nn2)c2ccc(I)cc21 [Compound 26] | – | 21.5 ± 2 | 2.5 ± 0.4 | specificity for tumoral cells [2]: high specificity for tumoral cells |
| COC(=O)/C=C/c1ccc2c(c1)C(=O)C(=O)N2Cc1ccccc1 [Compound 31] | – | 3.5 ± 0.8 | 6.8 | IC50 [2]: 8.8 ± 1.1 µM; specificity for tumoral cells [2]: not showing fully specific toxic activity for cancerous cells |
| N.N.O=C([O-])C1(C(=O)[O-])CCC1.[Pt+2] [carboplatin] | – | – | – | IC50 (cervical tumors; [3]): 1000 µM |
| N.N.[Cl][Pt][Cl] [cisplatin] | – | – | – | IC50 (cervical tumors; [3]): 15 µM |
| CC(=O)O[C@H]1C(=O)[C@@]2(C)[C@H]([C@H](OC(=O)c3ccccc3)[C@]3(O)C[C@H](OC(=O)[C@H](O)[C@@H](NC(=O)c4ccccc4)c4ccccc4)C(C)=C1C3(C)C)[C@]1(OC(C)=O)CO[C@@H]1C[C@@H]2O [paclitaxel] | – | – | – | IC50 (cervical tumors; [4]): 21 µM |
| CC[C@@]1(O)C(=O)OCc2c1cc1n(c2=O)Cc2cc3c(CN(C)C)c(O)ccc3nc2-1 [topotecan] | – | – | – | IC50 (cervical tumors; [4]): 26 µM |
| N-(tert-butyl)-3-(N-butyl-2-chloroacetamido)-1-methyl-2-oxoindoline-3-carboxamide [Compound 11] | – | – | – | IC50 [1]: 7.3 ± 0.7 µM; IC50 [2]: 40.1 ± 1.5 µM |
